Data taken from article PMC9983021, “Novel GluN2B-Selective NMDA Receptor Negative Allosteric Modulator Possesses Intrinsic Analgesic Properties and Enhances Analgesia of Morphine in a Rodent Tail Flick Pain Model” (ACS Chemical Neuroscience, 2023).

Assays:
C57BL/6J mice [1] = assay: Hot water tail immersion test, compound alone (intrinsic antinociception); format: in vivo; conditions: for dose at which significant increase in latency was achieved / dose at which significant latency increases were achieved: i.p.; for effect on tail flick latency vs vehicle / mean latency increase: i.p. 30 min prior to test; for effect on tail flick latency vs vehicle: n = 8 per group; for dose at which significant latency increases were achieved: lowest significant dose
Text: After evaluating EU93-108 in vitro, we next evaluated a panel of GluN2B inhibitors for their ability to produce an antinociceptive effect using a classical model of pain perception, determination of tail flick latency for mice when their tails are placed in hot water (Figures 4 and 5). The hot water tail immersion test is a well-validated method of assessing reflexive (i.e., spinal) pain-like response in rodents.[80]−[83] We interpret a drug-induced increase in tail flick latency as analgesia.
The inhibitors were injected i.p. 30 min prior to a hot water tail immersion test. Four treatment groups and one control group were used (n = 8 per group) where the control group received vehicle (10% DMSO, 20% PEG, 2% DMA in water) and groups 1 through 4 were randomly assigned one dose of the appropriate compound.
All animal studies performed at Emory have been approved by the Institutional Animal Care and Use Committee at Emory University. Male and female C57BL/6J mice weighing between 20 and 30 g were housed five per cage and given ad libitum access to food and water. The mice were 8–10 weeks of age at the time of experimentation. Animal holding rooms operated on a 12 h dark/light cycle with the dark cycle from 7:00 pm to 7:00 am. Mice were allowed to acclimate in cages for one week after arrival. The mice were handled regularly and habituated to scruffing and cloth restraint for 3–5 days prior to experimentation.
Mouse weights were recorded on the day of each experiment. Mice were given the appropriate treatment(s) 30 min prior to testing. All injection volumes were 10 mL/kg (e.g., 350 μL for a 35 g mouse). For the tail immersion experiments, each mouse was restrained with a Wypall cloth, leaving the tail exposed. The distal two-thirds of the tail was lowered into a sous vide water bath set to 48 °C, and a stopwatch with a resolution of 0.01 s was used to record the time elapsed between immersion and tail flick. Three recordings were taken for each mouse, and each data point is expressed as the mean of the three recordings. A cut-off time of 25 s was implemented to prevent tissue damage or scarring. For each experiment, the identities of the doses were coded by an independent researcher to ensure blinding. The identities were not decoded until the data were analyzed.
(§1) Prism 9.3.1 software (GraphPad, San Diego, CA) was used for all data analysis and visualization. Data for intrinsic antinociception was analyzed using one-way ANOVA and Dunnett’s post hoc test for multiple comparisons where each group was compared to vehicle. Data for acute morphine potentiation experiments were analyzed using one-way ANOVA and Tukey’s post hoc test for multiple comparisons was also used, where each group mean was compared to the mean of every other group. Data for tolerance experiments were analyzed using repeated measures two-way ANOVA and Bonferroni post hoc analysis. Data are presented as mean ± SEM and p < 0.05 constitutes significance.

C57BL/6J mice [2] = assay: Preestablished morphine tolerance (tolerant mice, tail immersion test); format: in vivo; conditions: co-administered with morphine; males 10 mg/kg, females 20 mg/kg i.p.
Text: We next wanted to assess EU93-108 for effects on other facets of tolerance. Specifically, we were interested in whether EU93-108 could increase tail flick latency in mice that were already tolerant to morphine (i.e., preestablished tolerance). To assess the effect of EU93-108 on preestablished tolerance, five groups were used (n = 8 per group): vehicle/saline, vehicle/morphine, ifenprodil/morphine, EU93-108/saline, and EU93-108/morphine. All groups except for the vehicle/saline control group were administered morphine three times per day (according to the stair stepping protocol outlined in Figure 11) at gradually increasing doses from 25 to 40 mg/kg three times a day at 3–4 h intervals for three consecutive days until tolerance was observed on day 4 (Figure 12, black circles).
Figure 11 Dosing regimen to assess effects of EU93-108 on tolerant mice. TIT = tail immersion test. All mice received morphine or saline three times a day according to the protocol in Figure 9. Doses of morphine are shown above the arrows, in mg/kg. Once tolerance was established on day 4, the mice were randomly assigned to receive vehicle, EU93-108, or ifenprodil once a day for two consecutive days. […]
Mouse weights were recorded on the day of each experiment. […] Three recordings were taken for each mouse, and each data point is expressed as the mean of the three recordings. […] The identities were not decoded until the data were analyzed.
as §1, with “Data are presented as mean ± SEM and p < 0.05 constitutes significance.” left out

Structure (SMILES)	dose at which significant increase in latency was achieved (C57BL/6J mice [1]; female mice)	effect on tail flick latency vs vehicle (C57BL/6J mice [1]; female mice)	mean latency increase (C57BL/6J mice [1]; male mice)	effect on tail flick latency vs vehicle (C57BL/6J mice [1]; male mice)	dose at which significant latency increases were achieved (C57BL/6J mice [1]; male mice)	tail flick latency in morphine-tolerant mice, day 5 vs day 4 (C57BL/6J mice [2])	ED50 (C57BL/6J mice [1]; Mus musculus, sc, 0.5 h, read-out: ED50 (tail flick latency), morphine dose-response curve)
CS(=O)(=O)Nc1ccc(OC[C@@H](O)CNCCc2ccc(Cl)c(Cl)c2)cc1 [EU93-4]	50 mg/kg	significant increases in latency at the highest doses tested	10 s	significant increases in tail flick latency at 50 mg/kg	50 mg/kg	–	–
CC(C(O)c1ccc(O)cc1)N1CCC(Cc2ccccc2)CC1 (stereo not shown) [ifenprodil, reference compound]	–	did not produce any significant increases in latency at the doses tested	–	did not display significant increases in latency at the doses tested	–	continued to decrease on day 5	–
CCCCN(CCc1ccc(Cl)c(Cl)c1)C[C@H](O)COc1ccc(NS(C)(=O)=O)cc1 [EU93-31]	100 mg/kg	significant increases in latency at the highest doses tested	10 s	significant increases in latency at the two highest doses tested (50 and 100 mg/kg)	50 mg/kg	–	–
C[C@H](CN1CCC(Cc2ccccc2)CC1)[C@H](O)c1ccc(O)cc1 [Ro25-6981, reference compound]	–	did not produce any significant increases in latency at the doses tested	–	did not display significant increases in latency at the doses tested	–	–	–
CN1CC[C@]23c4c5ccc(O)c4O[C@H]2[C@@H](O)C=C[C@H]3[C@H]1C5 [Morphine]	–	–	–	–	–	–	5.15 mg/kg
